Results: US6369003B1, “Process and composition for soil improvement by reducing microbially formed ethylene in the soil” (BASF Aktiengesellschaft, priority 1994, dated 2002)

Key:
[1] = tested on: Soybean plants (Delta Pine 415); test: Soybeans test 3a: root nodules and total N, greenhouse; type: in vivo, Glycine max; conditions: after 3 weeks; for Nodules: untreated 49
Method: (§1) In these tests various types of non-sterile soils were used. The cultivation of the plants was carried out under greenhouse or climatic chamber conditions. The active compounds according to the invention were applied uniformly distributed over the soil surface in an aqueous preparation after the emergence of the respective test plants. The supply of water for the plants was carrried out using the same technique, always paying attention to uniform moistness of the soil. In the case of the cultivation of legumes, defined amounts of species-specific Rhizobia were admixed to the soil. In some cases inoculation was also carried out by seed treatment.
a) Soybean plants (Delta Pine 415) were cultivated under greenhouse conditions in low N Limburgerhof soil in plastic pots (500 ml) and watered from above as required. A few days after emergence the plants were thinned out to 5 plants per pot.
In 8 pots in each case per test member an aqueous active compound solution of 2.3.1.3 was applied by watering. 16 pots remained untreated in each case.

[2] = tested on: Peas (Kleine Rheinländerin); test: Peas test 2b: biomass and root nodules, greenhouse; type: in vivo, Pisum sativum; conditions: 12 days after treatment; for Dry matter (shoot + root): control 2.55; for Nodules: control 20
Method: as §1
b) Peas (Kleine Rheinländerin) were cultivated under greenhouse conditions in low N Limburgerhof soil in plastic pots (500 ml) and watered from above as required (constant weight). A few days after emergence the plants were thinned out to 5 plants per pot.
In four pots in each case aqueous active compound solutions of one concentration of 2.3.1.3 were applied by watering. Four pots remained untreated.
12 days after treatment the following results were obtained: […]

Wheat (Ralle) = test: Promotion of shoot growth of wheat, greenhouse; type: in vivo; conditions: applied by watering 10 days after sowing; 3 weeks after treatment
Method: as §1
(§2) Wheat (Ralle) and rape (Petranova) plants were cultured under greenhouse conditions in low N Limburgerhof soil in plastic pots (500 ml) and watered from above as required. The water content of the soil here was about 80% of the maximum water capacity. A few days after emergence the plants were thinned out to 40 plants per pot.
(§3) 10 days after sowing aqueous preparations of 2.3.1.3 were applied by watering to 8 pots per test series in each case. 16 pots in each case remained untreated. 3 weeks after treatment the fresh shoot weight of the plants was determined.

rape (Petranova) = test: Promotion of shoot growth of rape, greenhouse; type: in vivo; conditions: applied by watering 10 days after sowing; 3 weeks after treatment
Method: as §1, §2, §3

[3] = tested on: Bean plants (Small Seeded Bell); test: Field beans: root nodules, root and shoot biomass, greenhouse; type: in vivo, Vicia faba; conditions: 25 days after treatment; for Nodules: untreated 30.9; for Dry matter root: untreated 1090; for Dry matter shoot: untreated 2310
Method: as §1
Bean plants (Small Seeded Bell) were cultivated under greenhouse conditions in low N, sandy loam soil in plastic pots (750 ml) and watered from above as required. A few days after emergence the plants were thinned out to 3 plants per pot.
In 5 pots in each case 25 ml each of an aqueous preparation of one concentration of 2.3.1.3 were applied by watering. 5 pots remained untreated.
(§4) 25 days after treatment the following results were obtained: […]

[4] = tested on: Lucerne plants (Maricopa); test: Lucerne: root nodules and shoot biomass, greenhouse; type: in vivo, Medicago sativa; conditions: 25 days after treatment; for Root nodules: untreated 10.5; for Dry matter shoot: untreated 180
Method: as §1
Lucerne plants (Maricopa) were cultivated under greenhouse conditions in low N, sandy loam soil in plastic pots (750 ml) and watered from above as required. A few days after emergence the plants were thinned out to 3 plants per pot.
In 5 pots in each case 25 ml of an aqueous preparation of one concentration of 2.3.1.3 were applied by watering. 5 pots remained untreated.
as §4

[5] = tested on: Groudnuts of the variety Florigiant; test: Field test: seed yield and seed quality in groundnuts; type: in vivo, Arachis hypogaea; conditions: for Seeds of the highest quality level: relative, untreated = 100 (38.0 %); for Yield of groundnuts: untreated = 100 (45.4 dt/ha)
Method: The tests a) and b) were carried out under conditions like those in practice in 1993 on the field test site of BASF Corporation in Holly Springs, N.C., USA. This location is distinguished by a medium-heavy soil (sandy loam). Groudnuts of the variety Florigiant were used. Treatment was carried out 20, 27 and 34 days after emergence of the plants. For treatment, the soil between the rows was sprayed with an aqueous preparation of the active compound 2.3.1.3. Immediately after application the active compound was washed into the soil by spray irrigation with 20 mm of water. The spray irrigation was also used to wash off active compound which had possibly reached the leaves. Harvesting of the plants at full maturity gave the following results: […]

[6] = 10 g/ha of a.s., treated 20 days after emergence
[7] = 10 g/ha of a.s., treated 27 days after emergence
[8] = 10 g/ha of a.s., treated 34 days after emergence
[9] = 100 g/ha of a.s., treated 20 days after emergence
[10] = 100 g/ha of a.s., treated 27 days after emergence
[11] = 100 g/ha of a.s., treated 34 days after emergence
[12] = 1000 g/ha of a.s., treated 20 days after emergence
[13] = 1000 g/ha of a.s., treated 27 days after emergence
[14] = 1000 g/ha of a.s., treated 34 days after emergence

COC(=O)COC(=O)CON=C(C)C [active compound 2.3.1.3]
Total N (shoot + root) ([1]; 0.003 mg of a.s./pot): 109 % of control | Nodules ([1]; 0.003 mg of a.s./pot): 60 number/pot | Total N (shoot + root) ([1]; 0.030 mg of a.s./pot): 108 % of control | Nodules ([1]; 0.030 mg of a.s./pot): 62 number/pot | Total N (shoot + root) ([1]; 0.300 mg of a.s./pot): 118 % of control | Nodules ([1]; 0.300 mg of a.s./pot): 73 number/pot | Dry matter (shoot + root) ([2]; 0.001 mg/pot): 2.65 g/pot | Nodules ([2]; 0.001 mg/pot): 31 number/pot | Dry matter (shoot + root) ([2]; 0.003 mg/pot): 3.07 g/pot | Nodules ([2]; 0.003 mg/pot): 68 number/pot | Dry matter (shoot + root) ([2]; 0.010 mg/pot): 3.00 g/pot | Nodules ([2]; 0.010 mg/pot): 66 number/pot | Dry matter (shoot + root) ([2]; 0.030 mg/pot (insect attack)): 2.32 g/pot | Nodules ([2]; 0.030 mg/pot (insect attack)): 30 number/pot | Dry matter (shoot + root) ([2]; 0.100 mg/pot): 2.52 g/pot | Nodules ([2]; 0.100 mg/pot): 59 number/pot | Dry matter (shoot + root) ([2]; 0.300 mg/pot): 3.13 g/pot | Nodules ([2]; 0.300 mg/pot): 76 number/pot | shoot growth (fresh shoot weight) (Wheat (Ralle)): shoot growth was promoted in nearly all cases | shoot growth (fresh shoot weight) (rape (Petranova)): shoot growth was promoted in nearly all cases | Nodules ([3]; 30 g of a.s./ha): 34.3 number/plant | Dry matter root ([3]; 30 g of a.s./ha): 1380 mg/plant | Dry matter shoot ([3]; 30 g of a.s./ha): 2880 mg/plant | Nodules ([3]; 300 g of a.s./ha): 50.7 number/plant | Dry matter root ([3]; 300 g of a.s./ha): 1470 mg/plant | Dry matter shoot ([3]; 300 g of a.s./ha): 3940 mg/plant | Nodules ([3]; 3000 g of a.s./ha): 48.2 number/plant | Dry matter root ([3]; 3000 g of a.s./ha): 960 mg/plant | Dry matter shoot ([3]; 3000 g of a.s./ha): 2450 mg/plant | Root nodules ([4]; 30 g of a.s./ha): 10.7 number/plant | Dry matter shoot ([4]; 30 g of a.s./ha): 300 mg/plant | Root nodules ([4]; 300 g of a.s./ha): 10.3 number/plant | Dry matter shoot ([4]; 300 g of a.s./ha): 240 mg/plant | Seeds of the highest quality level [5, 6]: 124% | Yield of groundnuts [5, 6]: 108% | Seeds of the highest quality level [5, 7]: 121% | Yield of groundnuts [5, 7]: 109% | Seeds of the highest quality level [5, 8]: 113% | Yield of groundnuts [5, 8]: 124% | Seeds of the highest quality level [5, 9]: 95% | Yield of groundnuts [5, 9]: 121% | Seeds of the highest quality level [5, 10]: 113% | Yield of groundnuts [5, 10]: 104% | Seeds of the highest quality level [5, 11]: 84% | Yield of groundnuts [5, 11]: 121% | Seeds of the highest quality level [5, 12]: 103% | Yield of groundnuts [5, 12]: 113% | Seeds of the highest quality level [5, 13]: 113% | Yield of groundnuts [5, 13]: 120% | Seeds of the highest quality level [5, 14]: 108% | Yield of groundnuts [5, 14]: 113%
